Results published in PubChem BioAssay (NCI).
Values joined by “and” are separate entries in the source; they are usually repeats but may differ in a detail not shown here. Equal values may be shown once.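 Dose response: 5 concentrations. Exposure: 48 h. Format: 96-well plates. Endpoint: linear interpolation; highest concentration if not reached. At the GI50, growth is halved. Definition used: TGI = concentration required for complete inhibition of growth.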 Where a SMILES comes first, the peptide text is derived from it. [ ]: non-standard residue; d: D form. The star is where a group is joined. Bn2Val = CC(C)[C@@H](C(=O)*)N(Cc1ccccc1)Cc1ccccc1; NMeV = CN[C@H](C(=O)O)C(C)C; X29 = COc1ccc(CN*)c(OC)c1; dNMeA = CN[C@H](C)C(=O)O; Boc = CC(C)(C)OC(=O)*; OBn = c1ccc(CO*)cc1

Experiments:
Assay in all cases: NCI anticancer screen, dose series, 48 h
A549 NSCLC = system: A549 NSCLC
BT-549 breast = system: BT-549 breast
CCRF-CEM leukemia = system: CCRF-CEM leukemia
HT29 colon = system: HT29 colon
MDA-MB-435 = system: MDA-MB-435
MDA-N = system: MDA-N
NCI-H23 lung = system: NCI-H23 lung
SF-268 CNS = system: SF-268 CNS
SF-539 CNS = system: SF-539 CNS
SNB-19 CNS = system: SNB-19 CNS
TK-10 renal = system: TK-10 renal

SMILES	TGI (A549 NSCLC) [µM]	TGI (BT-549 breast) [µM]	TGI (CCRF-CEM leukemia)	TGI (HT29 colon) [µM]	TGI (MDA-MB-435) [µM]	TGI (MDA-N) [µM]	TGI (NCI-H23 lung) [µM]	TGI (SF-268 CNS) [µM]	TGI (SF-539 CNS) [µM]	TGI (SNB-19 CNS) [µM]	TGI (TK-10 renal) [µM]	GI50 (CCRF-CEM leukemia)
Cc1ccnc2nc(N)ccc12	> 100	> 100	> 100 µM	> 100	> 100	> 100	> 100	> 100	> 100	> 100	> 100	–
CC(C)(O)C1CC[C@]2(C)[C@H]3CC[C@@H]4[C@@]5(C)CCCC(C)(C)[C@@H]5CC[C@@]4(C)[C@]3(C)CC[C@@H]12 (stereo partly specified)	> 100	> 100	> 100 µM	> 100	> 100	> 100	> 100	> 100	> 100	> 100	> 100	–
Oc1ccccc1C1C=C(c2ccccc2)NC(N2CCCCC2)=C1c1nc2ccccc2[nH]1 (stereo unspecified)	29.2	28.5	47.7 µM	29.3	29.6	26.6	30.3	27.5	29.7	28.7	34.3	–
COc1ccccc1N=Nc1c(O)c(S(=O)(=O)O)cc2cc(S(=O)(=O)O)ccc12	> 100	> 100	> 100 µM	> 100	> 100	> 100	> 100	> 100	–	> 100	> 100	–
CC1(C)CC2(C)CC1CC2(O)c1ccccc1 (stereo unspecified)	> 100	> 100	> 100 µM	> 100	> 100	> 100	> 100	> 100	> 100	> 100	> 100	–
Cc1cccc2nc3c(=O)[nH]c(=O)nc-3n(C)c12	> 100	> 100	> 100 µM	> 100	34.1	> 100	> 100	> 100	> 100	> 100	> 100	–
COC(=O)c1c(CC(Cc2ccc3c(c2)CCCC3)C(=O)OC)ccc2c1CCCC2 (stereo unspecified)	> 100	> 100	> 100 µM	> 100	> 100	> 100	> 100	> 100	> 100	> 100	> 100	–
COc1ccc(CNC(=O)[C@@H]2CCCN2C(=O)[C@@H](C)N(C)C(=O)[C@H](C(C)C)N(C)C(=O)[C@@H](NC(=O)[C@H](C(C)C)N(Cc2ccccc2)Cc2ccccc2)C(C)C)c(OC)c1 (Bn2Val-V[NMeV][dNMeA]P-X29)	> 100	7.72	–	3.26	6.61	5.78	9.3	> 100	4.69	22.8	22.4	–
CN1CN(c2ccccc2)C2(CCN(CCCCCCF)CC2)C1=O	> 100	> 100	> 100 µM	> 100	> 100	> 100	> 100	> 100	92.4	> 100	> 100	–
O=c1[nH]c(=O)n(COCCO)c2ccsc12	> 100	> 100	> 100 µM	> 100	> 100	> 100	> 100	> 100	> 100	> 100	> 100	–
Cn1c([C@H](C#N)C(=O)c2cc(O)ccc2[N+](=O)[O-])nc2ccccc21	> 100	> 100	> 100 µM	> 100	> 100	> 100	> 100	> 100	> 100	> 100	> 100	–
Cc1nc2n(c1/C=C1/C(=O)Nc3ccccc31)CCS2	> 100	> 100	> 100 µM	> 100	36.1	44.4	> 100	> 100	> 100	> 100	> 100	–
CS[C@]12[C@@H]3C(=O)N(C)C(=O)[C@@H]3[C@](C)(C(=O)N1C)C(=O)N2c1ccccc1	> 100	> 100	> 100 µM	> 100	> 100	> 100	> 100	> 100	> 100	> 100	> 100	–
CCCCCCCCCC(=O)N[C@@H](c1ccco1)[C@@H](O)C(=O)O[C@H]1C[C@@]2(O)[C@@H](OC(=O)c3ccccc3)[C@@H]3[C@]4(OC(C)=O)CO[C@@H]4C[C@H](O)[C@@]3(C)C(=O)[C@H](OC(C)=O)C(=C1C)C2(C)C	> 50	1.07	–	7.1	0.0345	0.00909	11.4	24.5	0.17	> 30.5	9.22	–
Nc1nccc(NCC2(CO)CCC2)n1	> 100	> 100	> 100 µM	> 100	> 100	> 100	> 100	> 100	> 100	–	77.4	–
CO[C@H]1O[C@@H]2CO[C@@H](c3ccccc3)O[C@H]2[C@@H]2C/C=C\CCC[C@@]12O	> 100	43.8	> 100 µM	40.3	52.9	60.8	52.7	43.3	–	> 100	> 100	–
CCOc1ccc(N=NC2C(=O)N(C(=O)CC(=O)Nc3ccccc3)N=C2C)cc1 (stereo unspecified)	> 100	> 100	> 100 µM	> 100	23.8	21.5	> 100	> 100	> 100	> 100	> 100	–
CC(C)CC(NC(=O)OC(C)(C)C)C(=O)NC(CC(=O)OCc1ccccc1)C(=O)OCc1ccccc1 (stereo not drawn) (Boc-Leu-Asp(OBn)-OBn; configuration not given here)	> 100	> 100	> 100 µM	> 100	> 100	> 100	> 100	> 100	96.7	99.5	60.9	–

SMILES	TGI (A549 NSCLC) [µM]	TGI (BT-549 breast) [µM]	TGI (CCRF-CEM leukemia)	TGI (HT29 colon) [µM]	TGI (MDA-MB-435) [µM]	TGI (MDA-N) [µM]	TGI (NCI-H23 lung) [µM]	TGI (SF-268 CNS) [µM]	TGI (SF-539 CNS) [µM]	TGI (SNB-19 CNS) [µM]	TGI (TK-10 renal) [µM]	GI50 (CCRF-CEM leukemia)
C=C1[C@@](C)([C@@H]2CCCS2)[C@H]2C(C)=C[C@]1(C)n1c(=O)n(-c3ccccc3)c(=O)n12	> 100	> 100	> 100 µM	> 100	> 100	> 100	> 100	> 100	> 100	> 100	> 100	–
O=C1CC(C(OCc2ccccc2)C(OCc2ccccc2)C(COCc2ccccc2)OCc2ccccc2)CC(=O)N1 (stereo unspecified)	> 100	> 100	80.4 µM and > 75 µM	> 75	> 100	> 100	> 100	> 100	> 100	> 100	> 100	19.4 µM and 64.4 µM
O=C(O)CC[P+](c1ccccc1)(c1ccccc1)c1ccccc1	> 100	81.8	> 100 µM	> 100	> 100	> 100	> 100	> 100	–	> 100	> 100	–
CN(C)c1ccc(/C=C/C(=O)N[C@@H]2C(=O)N3[C@@H]2SC(C)(C)[C@@H]3C(=O)O)cc1	> 100	> 100	> 100 µM	> 100	> 100	> 100	> 100	> 100	> 100	> 100	> 100	–
COC(=O)[C@@](C)(COC(=O)C(C)(C)C)NC(=O)OC(C)(C)C	> 100	> 100	> 100 µM	> 100	> 100	> 100	> 100	> 100	> 100	> 100	> 100	–
O=S(=O)(O)c1cccc2cccc(N=Nc3c(O)ccc4ccccc34)c12	> 100	> 100	> 100 µM	> 100	> 100	> 100	> 100	> 100	> 100	> 100	> 100	–
CCOC(=O)NNC(=O)NCc1ccccc1CNC(=O)NNC(=O)OCC	> 100	> 100	> 100 µM	> 100	> 100	> 100	> 100	> 100	> 100	> 100	> 100	–
Cc1c(OCc2ccccc2)c(=O)ccn1CCc1c[nH]c2ccccc12	> 100	> 100	> 100 µM	71.9	51.1	79.9	> 100	64.1	> 100	> 100	> 100	–
CS(=O)(=O)c1nc(-c2cc3c(c(S(C)(=O)=O)n2)CCC3)cc2c1CCCC2	> 100	83.8	> 100 µM	> 100	> 100	> 100	> 100	24.4	> 100	> 100	> 100	–
Cc1ccc(S(=O)(=O)[C@@H](Cl)[C@H]2N=C(Cl)NN=C2c2ccccc2)cc1	> 100	59	75 µM	> 100	51.4	74.4	63.1	38.8	61.1	> 100	> 100	–
COc1ccc(C2OCCN2C)cc1 (stereo unspecified)	> 100	> 100	> 100 µM	> 100	> 100	> 100	> 100	> 100	> 100	> 100	> 100	–
CCOC(=O)c1c(C)nc2c(c1-c1cn(-c3ccccc3)nc1-c1ccccc1)C(=O)c1ccccc1-2	> 100	> 100	> 100 µM	> 100	> 100	> 100	> 100	> 100	–	> 100	> 100	–
COC(=O)C(=O)C(C(=O)C(=O)Nc1cccc([N+](=O)[O-])c1)c1nc2ccc(Cl)cc2[nH]c1=O (stereo unspecified)	> 100	> 100	> 100 µM	> 100	> 100	> 100	> 100	> 100	> 100	> 100	> 100	–
CN(C(=O)c1ccc2c(c1)sc1c(=O)n(C)c3ccccc3c12)c1ccccc1	> 100	> 100	> 100 µM	> 100	> 100	> 100	> 100	–	> 100	> 100	> 100	–
O=C(Sc1c(-c2ccccc2)c(=O)n(-c2ccccc2)c(=S)n1-c1ccccc1)c1cccs1	> 100	> 100	97.8 µM	> 100	> 100	> 100	> 100	> 100	–	> 100	> 100	–
COC(=O)C1=C(O)C(C(=O)OC)[C@]2(O)[C@@H](C(=O)OC)[C@H]1C[C@@H](c1ccccc1)[C@@H]2C(=O)OC (stereo partly specified)	–	33.5	49.3 µM	36.7	30.6	19.1	32.1	8.12	25.5	68.7	53.5	–
Cc1nnc2n(c1=O)CCN2C	> 100	> 100	> 100 µM	> 100	> 100	> 100	> 100	> 100	> 100	> 100	> 100	–
